According to patent US20230151034A1 (COCRYSTAL PHARMA, INC., priority 2020, published 2023):

Target: SARS2 protease (Severe acute respiratory syndrome coronavirus 2, UniProt P0DTD1)
Assay: SARS-CoV-2 protease inhibition assay (SARS2 FRET protease assay)
Type: biochemical
Conditions: Table E; SARS-CoV-2 protease inhibition; read-out: IC50
Experimental: Viral protease assays: The antiviral activities of inhibitors were determined by FRET (Fluorescence Resonance Energy Transfer) assay. Purified viral protease was incubated with the protease substrate peptide (Edans-DFHLQ/GP-Dabcyl) and inhibitor, and IC50 values were subsequently determined by the fluorescence signals.
The SARS2 FRET protease assay was performed in 20 mM HEPES-Na pH 7, 120 mM NaCl, 0.4 mM EDTA, 0.01% Triton, 5% glycerol, and 4 mM DTT. A self-quenching peptide substrate 5-FAM-TSA VLQ SGF RKK (5TAMRA)-NH2 was custom synthesized by Anaspec. Compounds were diluted in 3-fold serial dilutions to final concentrations of 20 μM to 1.0 nM. SARS2 protease was added to a final concentration of 25 nM, depending on the enzyme activity level, and the peptide substrate was added to a final concentration of 1.3 μM. The assay was incubated 30 minutes at 30° C. and read in a Perkin Elmer Envision with excitation at 473 nm and emission measurement at 519 nm.

For `CCCCCCCC1CCCCCCCC(C(=O)N(C)C)CC(C=O)NC(=O)[C@H](CC(C)C)NC1=O` (stereo in doubt) [Compound B17, (2S,5S)-5-formyl-15-heptyl-2-isobutyl-N,N-dimethyl-3,16-dioxo-1,4-diazacyclohexadecane-7-carboxamide], the IC50 was over 200 µM.
Molecule `CN(CCc1ccccc1)C(=O)CC[C@@H](CO)NC(=O)[C@H](CC1CCCCC1)NC(=O)OCc1cccc(Cl)c1` [Compound A26, 3-chlorobenzyl ((S)-3-cyclohexyl-1-(((S)-1-hydroxy-5-(methyl(phenethyl)amino)-5-oxopentan-2-yl)amino)-1-oxopropan-2-yl)carbamate] has an IC50 of 14.7 µM.
For `CCOP(=O)(OCC)[C@H](O)[C@@H]1CC(C(=O)N(C)Cc2ccc(OC)cc2OC)C/C=C/CCC(Cc2ccccc2)OC(=O)N[C@@H](CC(C)C)C(=O)N1` (stereo partly drawn) [Compound B28, Diethyl ((1S)-((4S,7S,E)-15-benzyl-9-((2,4-dimethoxybenzyl)(methyl)carbamoyl)-4-isobutyl-2,5-dioxo-1-oxa-3,6-diazacyclopentadec-11-en-7-yl)(hydroxy)methyl)phosphonate], the IC50 was over 200 µM.
`CCOP(=O)(OCC)C(O)[C@H](CC(C)C(=O)N(C)CCc1ccccc1)NC(=O)[C@H](CC1CCCCC1)NC(=O)OCc1cccc(Cl)c1` (stereo partly drawn) [Compound A104, 3-Chlorobenzyl ((2S)-3-cyclohexyl-1-(((2S)-1-(diethoxyphosphoryl)-1-hydroxy-4-methyl-5-(methyl (phenethyl)amino)-5-oxopentan-2-yl)amino)-1-oxopropan-2-yl)carbamate] gave an IC50 of over 200 µM.
For `CCCCCCCCC(=O)N[C@@H](CC(C)C)C(=O)NC1(C)CCC(=O)N(C)C1(O)C(=O)NC(C)C` (stereo partly drawn) [Compound A5, 2-hydroxy-N-isopropyl-1,3-dimethyl-3-((S)-4-methyl-2-nonanamidopentanamido)-6-oxopiperidine-2-carboxamide], the IC50 was over 200 µM.
`CC(C)C[C@@H]1NC(=O)OC(Cc2ccccc2)CCCCCC(C(=O)N(C)C)CC(C=O)NC1=O` (stereo in doubt) [Compound B44, (4S,7S)-15-benzyl-7-formyl-4-isobutyl-N,N-dimethyl-2,5-dioxo-1-oxa-3,6-diazacyclopentadecane-9-carboxamide] showed an IC50 of 185 µM.
With `CCOP(=O)(OCC)C(O)[C@H](CCC(=O)N(C)CCc1ccccc1Cl)NC(=O)[C@H](CC1CCCCC1)NC(=O)OCc1cccc(Cl)c1` (stereo partly drawn) [Compound A47, 3-Chlorobenzyl ((2S)-1-(((2S)-5-((2-chlorophenethyl)(methyl)amino)-1-(diethoxyphosphoryl)-1-hydroxy-5-oxopentan-2-yl)amino)-3-cyclohexyl-1-oxopropan-2-yl)carbamate] the IC50 was over 200 µM.
`CCOCCOCCN(C)C(=O)CC[C@H](NC(=O)[C@H](CC1CCCCC1)NC(=O)OCc1cccc(Cl)c1)C(=O)N(C)OC` [Compound A20, 3-Chlorobenzyl ((13S,16S)-17-cyclohexyl-13-(methoxy(methyl)carbamoyl)-9-methyl-10,15-dioxo-3,6-dioxa-9,14-diazaheptadecan-16-yl)carbamate] gave an IC50 of over 200 µM.
For `CCO[N+]([O-])(OCC)[C@H](O)[C@H]1CC2(CCCCCCC(Cc3ccccc3)C(=O)N[C@@H](CC(C)C)C(=O)N1)CCNC2=O` (stereo partly drawn) [Compound B41], the IC50 was over 200 µM.
In the case of `CCCCCCCC1CC/C=C/CC(C(=O)NC)C[C@@H](C(=O)N(C)OC)NC(=O)C(CC(C)C)NC(=O)O1` (single isomer, unassigned) [Compound B34], the IC50 is reported as over 200 µM.
Work on `CCOP(=O)(OCC)C(O)[C@H](CCC(=O)N(C)CCc1cccc(Cl)c1)NC(=O)[C@H](CC1CCCCC1)NC(=O)OCc1cccc(Cl)c1` (stereo partly drawn) [Compound A34, 3-Chlorobenzyl ((2S)-1-(((2S)-5-((3-chlorophenethyl)(methyl)amino)-1-(diethoxyphosphoryl)-1-hydroxy-5-oxopentan-2-yl)amino)-3-cyclohexyl-1-oxopropan-2-yl)carbamate] yielded an IC50 of over 200 µM.
With `CCNC(=O)OCCN(C)C(=O)CC[C@@H](CO)NC(=O)[C@H](CC1CCCCC1)NC(=O)OCc1cccc(Cl)c1` [Compound A101, 3-Chlorobenzyl ((12S,15S)-16-cyclohexyl-12-(hydroxymethyl)-8-methyl-4,9,14-trioxo-5-oxa-3,8,13-triazahexadecan-15-yl)carbamate] the IC50 was over 200 µM.
With `CCCCCCCC1CC/C=C\CC(C(=O)NC)C[C@@H](CO)NC(=O)[C@H](CC(C)C)NC1=O` (stereo partly drawn) [Compound B65, (2S,5S,Z)-13-heptyl-5-(hydroxymethyl)-2-isobutyl-N-methyl-3,14-dioxo-1,4-diazacyclotetradec-9-ene-7-carboxamide] the IC50 was over 200 µM.
Work on `CCN(CCc1ccccc1)C(=O)CC[C@H](NC(=O)[C@H](CC1CCCCC1)NC(=O)OCc1cccc(Cl)c1)C(=O)N(C)OC` (stereo in doubt) [Compound A42, 3-Chlorobenzyl ((S)-3-cyclohexyl-1-(((S)-5-(ethyl(phenethyl)amino)-1-(methoxy(methyl)amino)-1,5-dioxopentan-2-yl)amino)-1-oxopropan-2-yl)carbamate] yielded an IC50 of over 200 µM.
In the case of `CCCCCCCC1CC/C=C/CC(C(=O)NC)C[C@@H](C(=O)N(C)OC)NC(=O)C(CC(C)C)NC(=O)O1` (single isomer, unassigned) [Compound B36], the IC50 is reported as over 200 µM.
With `CCS(=O)(=O)NCCN(C)C(=O)CC[C@H](NC(=O)[C@H](CC1CCCCC1)NC(=O)OCc1cccc(Cl)c1)C(=O)N(C)OC` (stereo in doubt) [Compound A29, 3-Chlorobenzyl ((S)-3-cyclohexyl-1-(((S)-5-((2-(ethylsulfonamido)ethyl)(methyl)amino)-1-(methoxy(methyl)amino)-1,5-dioxopentan-2-yl)amino)-1-oxopropan-2-yl)carbamate] the IC50 was over 200 µM.
With `CCNC(=O)OCCN(C)C(=O)CC[C@H](NC(=O)[C@H](CC1CCCCC1)NC(=O)OCc1cccc(Cl)c1)C(=O)N(C)OC` [Compound A21, 3-Chlorobenzyl ((12S,15S)-16-cyclohexyl-12-(methoxy(methyl)carbamoyl)-8-methyl-4,9,14-trioxo-5-oxa-3,8,13-triazahexadecan-15-yl)carbamate] the IC50 was over 200 µM.
In the case of `CCCCCCCCC(=O)N[C@@H](CC(C)C)C(=O)N[C@H](CO)CCC(=O)NC` [Compound A110, N—((S)-1-(((S)-1-hydroxy-5-(methylamino)-5-oxopentan-2-yl)amino)-4-methyl-1-oxopentan-2-yl)nonanamide], the IC50 is reported as over 200 µM.
With `CCOP(=O)(OCC)C(O)[C@@H]1CC2(CC=CCCCC(Cc3ccccc3)C(=O)N[C@@H](CC(C)C)C(=O)N1)CCNC2=O` (stereo partly drawn) [Compound B23, Diethyl (((7S,10S)-13-benzyl-10-isobutyl-1,9,12-trioxo-2,8,11-triazaspiro[4.14]nonadec-17-en-7-yl)(hydroxy)methyl)phosphonate] the IC50 was 46.5 µM.
`CCCCCCCCC(=O)N[C@@H](CC(C)C)C(=O)N[C@@H](CCC(=O)NC)CSSC[C@H](CCC(=O)NC)NC(=O)[C@H](CC(C)C)NC(=O)CCCCCCCC` [Compound A111, N,N′-((2S,2'S)-(((2S,2'S)-disulfanediylbis(5-(methylamino)-5-oxopentane-1,2-diyl))bis(azanediyl))bis(4-methyl-1-oxopentane-1,2-diyl))dinonanamide] showed an IC50 of over 200 µM.
Molecule `CC(C)C[C@@H]1NC(=O)C(Cc2ccccc2)CCCCCCCC2CC(NC1=O)C(O)N(C)C2=O` (stereo partly drawn) [Compound B24, (4S)-7-benzyl-18-hydroxy-4-isobutyl-17-methyl-2,5,17-triazabicyclo[13.3.1]nonadecane-3,6,16-trione] has an IC50 of 188 µM.
With `CCOP(=O)(OCC)C(O)[C@H](CCC(=O)N1CCCC(c2ccccc2)C1)NC(=O)[C@H](CC1CCCCC1)NC(=O)OCc1cccc(Cl)c1` (stereo partly drawn) [Compound A106, 3-Chlorobenzyl ((2S)-3-cyclohexyl-1-(((2S)-1-(diethoxyphosphoryl)-1-hydroxy-5-oxo-5-(3-phenylpiperidin-1-yl)pentan-2-yl)amino)-1-oxopropan-2-yl)carbamate] the IC50 was over 200 µM.
Work on `CCCC1CCCC/C=C/CC2CC(NC(=O)[C@H](CC(C)C)NC1=O)C(O)(C(=O)NC(C)C)N(C)C2=O` (stereo partly drawn) [Compound B26, (4S,E)-18-hydroxy-4-isobutyl-N-isopropyl-17-methyl-3,6,16-trioxo-7-propyl-2,5,17-triazabicyclo[13.3.1]nonadec-12-ene-18-carboxamide] yielded an IC50 of over 200 µM.
`CC(C)CC1NC(=O)OC(Cc2ccccc2)CC/C=C/CC(C(=O)N(C)C)CC(C=O)NC1=O` (stereo in doubt) [Compound B38, (4S,7S)-15-Benzyl-7-formyl-4-isobutyl-N,N-dimethyl-2,5-dioxo-1-oxa-3,6-diazacyclopentadec-11-ene-9-carboxamide] showed an IC50 of 137 µM.
Molecule `CON(C)C(=O)[C@H](CCC(=O)N(C)CC(C)c1ccccc1)NC(=O)[C@H](CC1CCCCC1)NC(=O)OCc1cccc(Cl)c1` (stereo in doubt) [Compound A35, 3-chlorobenzyl ((2S)-3-cyclohexyl-1-(((2S)-1-(methoxy(methyl)amino)-5-(methyl(2-phenylpropyl)amino)-1,5-dioxopentan-2-yl)amino)-1-oxopropan-2-yl)carbamate] has an IC50 of over 200 µM.
`CCOC(=O)NCCN(C)C(=O)CC[C@H](NC(=O)[C@H](CC1CCCCC1)NC(=O)OCc1cccc(Cl)c1)C(O)P(=O)(OCC)OCC` (stereo partly drawn) [Compound A31, 3-Chlorobenzyl ((12S,15S)-16-cyclohexyl-12-((diethoxyphosphoryl)(hydroxy)methyl)-8-methyl-4,9,14-trioxo-3-oxa-5,8,13-triazahexadecan-15-yl)carbamate] showed an IC50 of 46 µM.
For `CCCCCCCC1CCCC/C=C/CC(C(=O)NC)C[C@@H](CO)NC(=O)[C@H](CC(C)C)NC1=O` (stereo partly drawn) [Compound B66, (2S,5S,E)-15-heptyl-5-(hydroxymethyl)-2-isobutyl-N-methyl-3,16-dioxo-1,4-diazacyclohexadec-9-ene-7-carboxamide], the IC50 was over 200 µM.
